# Paper PMC7466159, “Anti-Metastasis Fascin Inhibitors Decrease the Growth of Specific Subtypes of Cancers” (Cancers, 2020)
# Assays:
# [1] = Stability in plasma samples during bioanalysis; type: physicochemical; settings: after freeze-thaw, and during storage, processing and analysis
# Method: The concentrations of NP-G2-044 in plasma were determined using high performance liquid chromatography with tandem mass spectrometry (LC-MS/MS). All blood samples were transferred into a commercial tube containing potassium (K2) EDTA (ethylene diaminetetraacetic acid) and were processed for plasma. Samples were centrifuged (3000× g for 10 min at 2 to 8 °C) within one hour of collection. The assays used a Sciex API 4000 detector and nifedipine as an internal standard. The calibration ranges for NP-G2-044 were from 5.00 to 5000 ng/mL.
# [2] = test system: BT-20 triple-negative breast cancer cells; assay: Cell growth assay, BT-20; type: cell-based; settings: BT-20 cells in culture, 10% serum
# [3] = test system: phosphorylation of ERK, PLCγ1, and PI3K in MDA-MB-468 cells; assay: EGFR signaling pathway Western blotting, MDA-MB-468; type: cell-based; settings: 10 ng/mL EGF, 30 µM, 24 h
# Method: (§1) MDA-MB-468 cells and HCC38 cells grew in the presence of EGF with or without NP-G2-044. […] Finally, we used the animal model to investigate whether the primary tumor growth of MDA-MB-468 cells was sensitive to fascin inhibitors. MDA-MB-468 tumor cells were implanted into the mammary gland of NSG mice, and these mice were randomly divided into four groups. One group of mice was used as control (Figure 6I). The second group of mice was treated with the fascin inhibitor NP-G2-044 (Figure 6I). The third group was treated with the EGFR inhibitor gefitnib (Figure 6I), and the fourth group was treated with the combination of NP-G2-044 + gefitinib (Figure 6I). […] We dissected the primary tumor tissues 55 days after the tumor implantation from some mice. […] Furthermore, the overall survival of the mice was analyzed (Figure 6K).
# For the cell signal pathway analysis of breast cancer cells, HCC38 and MDA-MB-468 cells were plated in a 10-cm dish. After culture for 24 h, cells were incubated in serum-free medium for 16 h.
# U2932 cells = assay: Cell growth assay, U2932; settings: U2932 cells in culture, 4 days
# Method: (§2) We then extended our search to other types of lymphoma cells. […] Both U2932 and Ly10 cells are ABC-subtype DLBCLs, and HT cells are diffuse mixed lymphoma.
# (§3) For NP-G2-044 dose-dependent studies, 1 × 10^5 Ly10, U2932, or HT cells were seeded in a 12- or 24-well plate on day 0. A total of 1, 3, 10, 30, or 100 μM NP-G2-044 or control solvent was added to the plates. Cells were collected and counted on day 4. For time-dependent studies, 1 × 10^5 Ly10, U2932, or HT cells were seeded in a 12- or 24-well plate on day 0. A total of 30 μM NP-G2-044, 5 μM LY2409881, 30 μM NP-G2-044 plus 5 μM LY2409881, or control solvent was added to the plates. Cells were collected and counted on Days 2 and 4. […] The cell growth index was expressed as the fold changes of cell numbers over the starting cell number. For these assays, the old medium was changed with a fresh medium containing the control solvent or the inhibitors every two days.
# MDA-MB-468 tumor cells = assay: MDA-MB-468 breast cancer model in NSG mice (tumor growth, overall survival); type: in vivo; settings: treatment from Day 14, compared with the control group
# Method: as §1
# For the breast cancer model, MDA-MB-468 cells (5 × 10^6) suspended in PBS-matrigel (v/v, 1:1) were injected subcutaneously into the abdominal mammary gland area of female NSG mice on Day 0 as previously described. Starting on Day 14, NP-G2-044 was given once a day for 5 days every week by gavage at 300 mg kg^−1 per mouse until their death. Starting on Day 14, gefitinib was given twice weekly by gavage at 150 mg kg^−1 per mouse until their death. The control solvent was given once a day for 5 days every week by gavage according to their body weight until their death. […] The primary tumor volume was calculated as length × width^2 ×π/6.
# in vivo = settings: mouse, plasma
# Method: The PK parameters of NP-G2-044 were assessed following a single intravenous (IV) and single oral (PO) gavage dose administration to mice. Blood samples were collected pre-dose, and 3, 10, 30 min, 1, 1.5, 3, 6, 9, 24, 32, or 48 h after dosing. The plasma samples were then extracted and the concentrations of NP-G2-044 were determined by LC-MS/MS.
# The concentrations of NP-G2-044 in plasma were determined using high performance liquid chromatography with tandem mass spectrometry (LC-MS/MS). All blood samples were transferred into a commercial tube containing potassium (K2) EDTA (ethylene diaminetetraacetic acid) and were processed for plasma. Samples were centrifuged (3000× g for 10 min at 2 to 8 °C) within one hour of collection. The assays used a Sciex API 4000 detector and nifedipine as an internal standard. The calibration ranges for NP-G2-044 were from 5.00 to 5000 ng/mL. The plasma concentration of NP-G2-044 in mice was subjected to a non-compartmental pharmacokinetic analysis by using the Phoenix WinNonlin software (version 6.3, Pharsight, Mountain View, CA, USA). The nominal dose levels and nominal sampling times were used in the calculation of all pharmacokinetic parameters. The linear/log trapezoidal rule was applied in obtaining the PK parameters.
# HT cells = assay: Cell growth assay, HT; settings: HT cells in culture, 4 days
# Method: as §2, §3
smiles,measurement,setting,value
Cc1occc1C(=O)Nc1nn(Cc2ccc(C(F)(F)F)cc2)c2ccccc12 [NP-G2-044],stability,[1],stable
same,growth sensitivity,[2],sensitive
same,"phosphorylation of ERK, PLCγ1, and PI3K",[3],affected
same,effect on cell growth,U2932 cells,inhibitory effect
same,growth of primary tumors,MDA-MB-468 tumor cells,reduced the growth of primary tumors to the same degree
same,increase of median overall survival,MDA-MB-468 tumor cells,~ 50%
same,AUC(0-inf),"in vivo; iv, 20 mg/kg",7290 ± 1850 ng·h/mL
same,AUC(0-t),"in vivo; iv, 20 mg/kg",7150 ± 1750 ng·h/mL
same,C0,"in vivo; iv, 20 mg/kg",11300 ± 3840 ng/mL
same,MRT inf,"in vivo; iv, 20 mg/kg",3.34 ± 0.68 h
same,MRT last,"in vivo; iv, 20 mg/kg",2.81 ± 0.36 h
same,Vd,"in vivo; iv, 20 mg/kg",9.3 L/kg
same,clearance,"in vivo; iv, 20 mg/kg",48 ± 13.4 mL/min/kg
same,half-life,"in vivo; iv, 20 mg/kg",5.45 ± 1.58 h
same,Tmax,in vivo; po,0.8 to 6 h
same,AUC(0-inf),"in vivo; po, 20 mg/kg",2570 ± 568 ng·h/mL
same,AUC(0-t),"in vivo; po, 20 mg/kg",2550 ± 575 ng·h/mL
same,Cmax,"in vivo; po, 20 mg/kg",541 ± 176 ng/mL
same,MRT inf,"in vivo; po, 20 mg/kg",6.46 ± 1.44 h
same,MRT last,"in vivo; po, 20 mg/kg",6.16 ± 1.36 h
same,Tmax,"in vivo; po, 20 mg/kg",0.83 ± 0.58 h
same,bioavailability,"in vivo; po, 20 mg/kg",35.3%
same,half-life,"in vivo; po, 20 mg/kg",4.36 ± 0.46 h
same,AUC(0-inf),"in vivo; po, 50 mg/kg",6210 ± 1650 ng·h/mL
same,AUC(0-t),"in vivo; po, 50 mg/kg",6190 ± 1650 ng·h/mL
same,Cmax,"in vivo; po, 50 mg/kg",678 ± 258 ng/mL
same,MRT inf,"in vivo; po, 50 mg/kg",7.54 ± 0.85 h
same,MRT last,"in vivo; po, 50 mg/kg",7.4 ± 0.75 h
same,Tmax,"in vivo; po, 50 mg/kg",4.17 ± 3.18 h
same,bioavailability,"in vivo; po, 50 mg/kg",34.1%
same,half-life,"in vivo; po, 50 mg/kg",3.58 ± 0.43 h
same,AUC(0-inf),"in vivo; po, 100 mg/kg",14300 ± 2390 ng·h/mL
same,AUC(0-t),"in vivo; po, 100 mg/kg",14300 ± 2400 ng·h/mL
same,Cmax,"in vivo; po, 100 mg/kg",1450 ± 157 ng/mL
same,MRT inf,"in vivo; po, 100 mg/kg",8.4 ± 0.41 h
same,MRT last,"in vivo; po, 100 mg/kg",8.33 ± 0.38 h
same,Tmax,"in vivo; po, 100 mg/kg",6 ± 3 h
same,bioavailability,"in vivo; po, 100 mg/kg",39.2%
same,half-life,"in vivo; po, 100 mg/kg",4.39 ± 1.56 h
same,effect on cell growth,HT cells,inhibitory effect
